Results: article PMC9414684, “Quantitative Structure–Neurotoxicity Assessment and In Vitro Evaluation of Neuroprotective and MAO-B Inhibitory Activities of Series N′-substituted 3-(1,3,7-trimethyl-xanthin-8-ylthio)propanehydrazides” (Molecules, 2022)

What was measured:
[1] = system: isolated rat synaptosomes; assay: 6-OHDA-induced oxidative stress model, GSH level; assay type: cell-based; settings: for GSH levels stored (protected): 6-OHDA-induced oxidative stress, against the toxic agent
Description: The level of reduced glutathione was determined by measuring the non-protein SH-groups after precipitation of the proteins with trichloroacetic acid. After the incubation, synaptosomes were centrifuged at 400× g for 3 min. These diment were treated with 5% trichloroacetic acid and left for 10 min on ice. Samples were centrifuged at 8000× g for 10 min (2 °C). The supernatant was removed to determine the level of GSH and was stored at −20 °C. Immediately before the measurement, the samples were neutralized with 5 N NaOH.
The presence of thiols in the supernatant was determined using Ellman’s reagent. The resulting yellow color was measured spectrophotometrically at λ = 412 nm.
This in vitro model resembles the neurodegenerative processes occurring in PD. Dopamine metabolism and oxidation lead to the formation of ROS and reactive quinones. They induce dopamine neurotoxicity and neurodegeneration. The synaptosomes were incubated with 150 μmol 6-OHDA for 1 h.

[2] = system: isolated rat brain synaptosomes; assay: Synaptosomal viability (MTT test), compounds applied alone; assay type: cell-based; settings: 100 µmol; for relative synaptosomal vitality (RV): synaptosomal viability relative to caffeine (1) = 1; for decrease of synaptosomal viability: applied alone, against the control (untreated synaptosomes); for neurotoxicity on synaptosomes in words: single application, compared to the control and to caffeine
Description: (§1) The synaptosomes and mitochondria were prepared as explained in [54, 55] with the help of a colloidal silicon solution (Percoll): 1. Preparation of 90% stock solution of Percoll. 2. Preparation of Percoll solutions with two concentrations, 16% and 10%. An amount of 4 ml of Percoll 16% and 10% were added in the tubes. 3. An amount of 90% Percoll (7.5% Percoll) was added to the sediment from the last centrifugation. The tubes were centrifuged for 20 min at 15,000× g at 4 °C, resulting in the formation of three layers. The lower layer contained mitochondria, the upper layer, lipids and the middle layer (between 16% and 10% Percoll), synaptosomes. The middle and the lower layers of each tube were harvested and buffer B with glucose was added. The mixture was centrifuged at 10,000× g for 20 min at 4 °C. After centrifugation, the sediment with the synaptosomes and mitochondria was mixed with buffer B with glucose.
After the incubation, the synaptosomes were centrifuged three times at 15,000× g for 1 min. An MTT test was performed to determine synaptosomal vitality by the method described in the literature. […]

isolated rat microsomes = assay: Fe2+/AA-induced lipid peroxidation model, MDA production; assay type: cell-based; settings: 100 µmol, compared to the toxic agent
Description: The microsomes were pre-incubated with the analyzed compounds for 15 min at 37 °C. The reaction was started with a solution of iron sulphate 20 μmol and ascorbic acid 0.5 mmol. […] After starting the reaction, the LPO and the MDA quantity was assessed [62].
The quantity of the lipid peroxidation product MDA was assessed, using the method, described in the literature [62].

[3] = system: isolated rat brain mitochondria; assay: MDA production in isolated brain mitochondria, compounds applied alone; assay type: cell-based; settings: 100 µmol, against the control (untreated mitochondria)
Description: The synaptosomes and mitochondria were prepared as explained in [54, 55] with the help of a colloidal silicon solution (Percoll): 1. […] An amount of 4 ml of Percoll 16% and 10% were added in the tubes. 3. An amount of 90% Percoll (7.5% Percoll) was added to the sediment from the last centrifugation. The tubes were centrifuged for 20 min at 15,000× g at 4 °C, resulting in the formation of three layers. The lower layer contained mitochondria, the upper layer, lipids and the middle layer (between 16% and 10% Percoll), synaptosomes. The middle and the lower layers of each tube were harvested and buffer B with glucose was added. The mixture was centrifuged at 10,000× g for 20 min at 4 °C. After centrifugation, the sediment with the synaptosomes and mitochondria was mixed with buffer B with glucose. […] After that, the tubes were maintained in a bath filled with boiling water. Finally, the tubes were transferred to an ice bath and butanol (0.4 mL) was poured into each tube. In the next stage, centrifugation of the tubes was carried out at 3500× g for 10 min. Following that, assessment of the total quantity of MDA shaped in each sample was carried out using a spectrophotometer (UV-Vis Split) to measure the supernatant’s absorbance at 532 nm. The mitochondria were incubated with 75 µmol t-BuOOH [59]. The quantity of the lipid peroxidation product MDA was assessed, using the method, described in the literature.

[4] = target: T1, human recombinant MAO-B enzyme (hMAOB) (Homo sapiens, UniProt P27338); assay: Monoamine oxidase B activity, fluorimetric Amplex Ultra Red assay, tyramine substrate; assay type: biochemical; settings: 1 µmol, applied alone, against the control (pure hMAOB)
T1 sequence (P27338 1-520): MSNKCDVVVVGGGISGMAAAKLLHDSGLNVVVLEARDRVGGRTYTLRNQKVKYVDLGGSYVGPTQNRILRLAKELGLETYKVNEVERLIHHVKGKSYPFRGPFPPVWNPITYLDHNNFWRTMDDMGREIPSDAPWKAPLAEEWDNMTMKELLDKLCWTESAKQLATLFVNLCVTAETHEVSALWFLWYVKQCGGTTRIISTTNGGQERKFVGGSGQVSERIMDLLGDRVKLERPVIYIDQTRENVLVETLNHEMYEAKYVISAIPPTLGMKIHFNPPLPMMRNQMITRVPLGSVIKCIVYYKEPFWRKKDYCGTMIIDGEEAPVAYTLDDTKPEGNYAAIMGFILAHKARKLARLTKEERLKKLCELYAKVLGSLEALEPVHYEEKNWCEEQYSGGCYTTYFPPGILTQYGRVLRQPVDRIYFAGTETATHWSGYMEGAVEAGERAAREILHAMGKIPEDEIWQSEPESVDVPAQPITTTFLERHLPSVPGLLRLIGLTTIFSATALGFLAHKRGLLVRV
Description: Monoamine oxidase activity assay of recombinant human MAO-B was performed using a fluorimetric method by Amplex Ultra Redreagent [63]. Tyramine hydrochloride was used as substrate.
The MAO-B activity was normalized as a percentage of the untreated control set as 100% and the results were expressed as mean values and standard deviation (±SD). Statistical analysis was performed by one-way analysis of variance (ANOVA) with a post hoc multiple comparisons procedure (Dunnet’s test) to assess the statistical differences in case of normal distribution. Values of p < 0.05, p < 0.01 and p < 0.001 were considered as statistically significant.

[5] = system: isolated rat brain microsomes; assay: MDA production in isolated brain microsomes, compounds applied alone; assay type: cell-based; settings: 100 µmol; for pro-oxidant effect (MDA production): applied alone, compared to the control (untreated microsomes); for neurotoxicity on microsomes in words: tested alone, compared to the control and to caffeine
Description: The brain microsomes were prepared according to the procedure described in [61]. […] The homogenate was centrifugated at 17,000× g for 30 min. The pellet was suspended in 4 vol of the homogenization buffer and centrifuged at 17,000× g for a further period of 30 min. The supernatants from both centrifugations were combined (post-mitochondrial supernatant) and centrifuged at 100,000× g for 1 h. The pellet was resuspended in the above buffer and centrifuged at 100,000× g for 1 h. The resulting pellet was frozen in the buffer with glycerol.
The quantity of the lipid peroxidation product MDA was assessed, using the method, described in the literature.
Analysis of quantitative structure–neurotoxicity relationships employed the data from in vitro assessments of synaptosome viability (%) and MDA production in microsomal fractions (nmol/0.1 mg protein) as indicators for the neurotoxicity of compounds.

[6] = system: isolated rat synaptosomes; assay: 6-OHDA-induced oxidative stress model, synaptosomal vitality; assay type: cell-based; settings: against the toxic agent
Description: After the incubation, the synaptosomes were centrifuged three times at 15,000× g for 1 min. An MTT test was performed to determine synaptosomal vitality by the method described in the literature [56]. […] The synaptosomes were incubated with 150 μmol 6-OHDA for 1 h [58].

[7] = system: isolated rat brain mitochondria; assay: GSH level in isolated brain mitochondria, compounds applied alone; assay type: cell-based; settings: 100 µmol, against the control (untreated mitochondria)
Description: as §1
The DNTB spectrophotometric technique explained in [60] was applied for GSH content measurement in brain mitochondria. Then, 0.04% DTNB was mixed with the mitochondrial suspensions (0.5 mg protein/mL) in 0.1 mol/L of phosphate buffers (pH 7.4). The development of the yellow color was read at 412 nm (spectrophotometer UV-Vis Split).

MAO-B = target: MAO-B; parameters: method as in PMID 19342233; settings: MAO-B inhibitor activity; cited from earlier work

For `NCCc1cc(O)c(O)cc1O` [6-OHDA, 6-hydroxydopamine, reference compound], the “decrease of GSH levels by the toxic agent” value ([1]; 6-OHDA applied alone (150 μmol, 1 h), against the control (untreated synaptosomes)) was 50%.

With `Cn1c(=O)c2c(nc(SCCC(=O)NN=Cc3ccccc3)n2C)n(C)c1=O` [6a] the “relative synaptosomal vitality (RV)” value [2] was 0.743.

For `Cn1c(=O)c2c(nc(SCCC(=O)NN=Cc3ccc([N+](=O)[O-])cc3)n2C)n(C)c1=O` [6b], the “relative synaptosomal vitality (RV)” value [2] was 0.703.

For `Cn1c(=O)c2c(nc(SCCC(=O)NN=Cc3c(Cl)cccc3Cl)n2C)n(C)c1=O` [6c], the “relative synaptosomal vitality (RV)” value [2] was 0.689.

For `Cn1c(=O)c2c(nc(SCCC(=O)NN=Cc3cccc(Cl)c3)n2C)n(C)c1=O` [6d], the “relative synaptosomal vitality (RV)” value [2] was 0.730.

In the case of `Cn1c(=O)c2c(nc(SCCC(=O)NN=Cc3ccc(Br)cc3)n2C)n(C)c1=O` [6e], the “relative synaptosomal vitality (RV)” value [2] is reported as 0.743.

With `Cn1c(=O)c2c(nc(SCCC(=O)NN=Cc3ccc(C(F)(F)F)cc3)n2C)n(C)c1=O` [6f] the “relative synaptosomal vitality (RV)” value [2] was 0.757.

With `COc1ccc(C=NNC(=O)CCSc2nc3c(c(=O)n(C)c(=O)n3C)n2C)cc1OC` [6g] the “relative synaptosomal vitality (RV)” value [2] was 0.716.

With `COc1cc(C=NNC(=O)CCSc2nc3c(c(=O)n(C)c(=O)n3C)n2C)cc(OC)c1OC` [6h] the “relative synaptosomal vitality (RV)” value [2] was 0.703.

With `COc1cc(C=NNC(=O)CCSc2nc3c(c(=O)n(C)c(=O)n3C)n2C)cc(OC)c1O` [6i] the “relative synaptosomal vitality (RV)” value [2] was 0.743.

For `COc1cc(C=NNC(=O)CCSc2nc3c(c(=O)n(C)c(=O)n3C)n2C)ccc1O` [6j], the “relative synaptosomal vitality (RV)” value [2] was 0.730.

In the case of `COc1cccc(C=NNC(=O)CCSc2nc3c(c(=O)n(C)c(=O)n3C)n2C)c1OC` [6k, N′-(2,3-dimethoxybenzylidene)-3-(1,3,7-trimethyl-2,6-dioxo-2,3,6,7-tetrahydro-1H-purin-8-ylthio)propanehydrazide], the “reduction of MDA production” value (isolated rat microsomes) is reported as 38%, the “decrease of synaptosomal viability” value [2] is reported as 29% and the “neurotoxicity on synaptosomes in words” value [2] is reported as “lowest neurotoxicity”. The “relative synaptosomal vitality (RV)” value [2] was 0.959, the “change of MDA production” value [3] was “did not change statistically significantly” and the “GSH levels stored (protected)” value [1] was 20%. For the same compound, the “inhibition of hMAOB activity” value [4] was 25%, the “pro-oxidant effect (MDA production)” value [5] was “did not show any statistically significant pro-oxidant effect” and the “neurotoxicity on microsomes in words” value [5] was “lowest neurotoxicity”. For the same compound, the “protection of synaptosomal vitality” value [6] was 20%.

With `Cn1c(=O)c2c(nc(SCCC(=O)NN=Cc3ccccc3O)n2C)n(C)c1=O` [6l, N′-(2-hydroxybenzylidene)-3-(1,3,7-trimethyl-2,6-dioxo-2,3,6,7-tetrahydro-1H-purin-8-ylthio)propanehydrazide] the “neurotoxic effect on GSH level” value [7] was “did not show any statistically significant neurotoxic effect”, the “reduction of MDA production” value (isolated rat microsomes) was 50% and the “decrease of synaptosomal viability” value [2] was 28%. The “neurotoxicity on synaptosomes in words” value [2] was “lowest neurotoxicity”, the “relative synaptosomal vitality (RV)” value [2] was 0.973 and the “change of MDA production” value [3] was “did not change statistically significantly”. For the same compound, the “GSH levels stored (protected)” value [1] was 42%, the “inhibition of hMAOB activity” value [4] was 30% and the “pro-oxidant effect (MDA production)” value [5] was “did not show any statistically significant pro-oxidant effect”. For the same compound, the “neurotoxicity on microsomes in words” value [5] was “lowest neurotoxicity” and the “protection of synaptosomal vitality” value [6] was 36%.

For `Cc1cc(C)c(C=NNC(=O)CCSc2nc3c(c(=O)n(C)c(=O)n3C)n2C)c(C)c1` [6m], the “relative synaptosomal vitality (RV)” value [2] was 0.716.

For `COc1cccc(C=NNC(=O)CCSc2nc3c(c(=O)n(C)c(=O)n3C)n2C)c1O` [6n], the “relative synaptosomal vitality (RV)” value [2] was 0.689.

For `Cn1c(=O)c2c(nc(SCCC(=O)NN=Cc3cccc([N+](=O)[O-])c3)n2C)n(C)c1=O` [6o], the “relative synaptosomal vitality (RV)” value [2] was 0.757.

For `Cn1c(=O)c2c(ncn2C)n(C)c1=O` [compound 1, caffeine, reference compound], the “decrease of synaptosomal viability” value [2] was 26%, the “neurotoxicity on synaptosomes in words” value [2] was “lowest neurotoxicity” and the “change of MDA production” value [3] was “did not change statistically significantly”. For the same compound, the “GSH levels stored (protected)” value [1] was 30%, the “pro-oxidant effect (MDA production)” value [5] was “did not show any statistically significant pro-oxidant effect” and the “neurotoxicity on microsomes in words” value [5] was “lowest neurotoxicity”. For the same compound, the Ki (MAO-B) was 3.6 mM.
